{"source": "patent US20040063695A1", "about": "“Cystic fibrosis transmembrane conductance regulator protein inhibitors and uses thereof” (priority 2002, published 2004)", "key": {"[1]": {"biological_target": "T1, human wildtype CFTR (Homo sapiens, UniProt P13569)", "T1 construct": "expressed in transfected cells; host or cells: Fischer rat thyroid (FRT) cells, stably transfected, co-expressing YFP-H148Q", "assay": "YFP fluorescence assay of CFTR-mediated I− transport in FRT cells", "format": "cell-based", "conditions": "relative to CFTRinh-172 = 1.0"}, "[2]": {"biological_target": "MDR-1 (Homo sapiens, UniProt P08183)", "sequence (P08183 whole entry)": "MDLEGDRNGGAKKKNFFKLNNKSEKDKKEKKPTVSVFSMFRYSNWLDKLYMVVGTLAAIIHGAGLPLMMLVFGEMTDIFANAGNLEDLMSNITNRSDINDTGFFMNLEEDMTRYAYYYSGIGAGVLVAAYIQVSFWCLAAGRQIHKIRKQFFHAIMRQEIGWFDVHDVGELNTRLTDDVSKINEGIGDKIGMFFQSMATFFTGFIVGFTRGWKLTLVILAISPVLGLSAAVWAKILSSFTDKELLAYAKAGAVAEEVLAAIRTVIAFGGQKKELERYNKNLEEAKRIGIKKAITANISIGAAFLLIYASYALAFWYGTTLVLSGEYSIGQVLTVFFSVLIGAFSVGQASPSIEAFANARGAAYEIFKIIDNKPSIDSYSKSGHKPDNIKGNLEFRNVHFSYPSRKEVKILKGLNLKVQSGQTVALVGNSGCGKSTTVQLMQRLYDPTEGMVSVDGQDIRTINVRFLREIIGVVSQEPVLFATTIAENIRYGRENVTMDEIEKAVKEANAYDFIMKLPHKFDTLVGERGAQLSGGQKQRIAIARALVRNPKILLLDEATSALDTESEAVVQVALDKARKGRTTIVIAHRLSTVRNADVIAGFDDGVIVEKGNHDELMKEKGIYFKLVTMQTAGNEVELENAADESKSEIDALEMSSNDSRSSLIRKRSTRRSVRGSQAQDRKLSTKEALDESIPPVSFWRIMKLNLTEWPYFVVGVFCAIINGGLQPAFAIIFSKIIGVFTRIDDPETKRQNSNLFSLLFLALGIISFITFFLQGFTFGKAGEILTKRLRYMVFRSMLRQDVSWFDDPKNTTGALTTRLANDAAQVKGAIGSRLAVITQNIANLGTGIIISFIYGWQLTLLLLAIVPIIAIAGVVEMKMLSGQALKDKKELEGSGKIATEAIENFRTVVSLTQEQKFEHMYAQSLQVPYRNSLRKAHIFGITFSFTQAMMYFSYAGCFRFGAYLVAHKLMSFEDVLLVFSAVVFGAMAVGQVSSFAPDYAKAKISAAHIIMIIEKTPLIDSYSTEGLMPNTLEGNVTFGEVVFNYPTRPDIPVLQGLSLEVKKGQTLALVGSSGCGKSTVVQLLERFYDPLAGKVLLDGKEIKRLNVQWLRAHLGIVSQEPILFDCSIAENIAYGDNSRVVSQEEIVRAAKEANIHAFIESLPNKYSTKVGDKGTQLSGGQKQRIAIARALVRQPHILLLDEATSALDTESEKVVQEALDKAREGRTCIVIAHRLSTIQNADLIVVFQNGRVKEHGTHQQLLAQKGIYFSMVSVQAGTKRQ"}, "[3]": {"biological_target": "T2, water channel (AQP1) (Homo sapiens, UniProt P29972)", "T2 sequence (P29972 1-269)": "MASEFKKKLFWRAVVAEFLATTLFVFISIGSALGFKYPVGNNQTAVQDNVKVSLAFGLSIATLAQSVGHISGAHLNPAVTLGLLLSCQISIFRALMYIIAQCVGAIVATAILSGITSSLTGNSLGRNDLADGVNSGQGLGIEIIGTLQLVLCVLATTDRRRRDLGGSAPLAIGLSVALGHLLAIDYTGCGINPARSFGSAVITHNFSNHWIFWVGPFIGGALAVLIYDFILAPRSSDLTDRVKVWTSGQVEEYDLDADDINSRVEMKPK", "assay": "Additional specificity study: water channel", "conditions": "5 μM"}, "[4]": {"assay": "Animal toxicity in mice", "format": "in vivo"}, "[5]": {"tested_on": "cholera toxin-induced intestinal fluid secretion", "parameters": "species or system mice", "conditions": "mouse, in vivo, ip"}, "[6]": {"tested_on": "FRT cells", "assay": "Cell toxicity by the dihydrorhodamine method", "conditions": "after 24 hours, dihydrorhodamine assay"}, "[7]": {"biological_target": "T3, Cl−/HCO3− exchanger (AEI) (Homo sapiens, UniProt P02730)", "T3 sequence (P02730 1-911)": "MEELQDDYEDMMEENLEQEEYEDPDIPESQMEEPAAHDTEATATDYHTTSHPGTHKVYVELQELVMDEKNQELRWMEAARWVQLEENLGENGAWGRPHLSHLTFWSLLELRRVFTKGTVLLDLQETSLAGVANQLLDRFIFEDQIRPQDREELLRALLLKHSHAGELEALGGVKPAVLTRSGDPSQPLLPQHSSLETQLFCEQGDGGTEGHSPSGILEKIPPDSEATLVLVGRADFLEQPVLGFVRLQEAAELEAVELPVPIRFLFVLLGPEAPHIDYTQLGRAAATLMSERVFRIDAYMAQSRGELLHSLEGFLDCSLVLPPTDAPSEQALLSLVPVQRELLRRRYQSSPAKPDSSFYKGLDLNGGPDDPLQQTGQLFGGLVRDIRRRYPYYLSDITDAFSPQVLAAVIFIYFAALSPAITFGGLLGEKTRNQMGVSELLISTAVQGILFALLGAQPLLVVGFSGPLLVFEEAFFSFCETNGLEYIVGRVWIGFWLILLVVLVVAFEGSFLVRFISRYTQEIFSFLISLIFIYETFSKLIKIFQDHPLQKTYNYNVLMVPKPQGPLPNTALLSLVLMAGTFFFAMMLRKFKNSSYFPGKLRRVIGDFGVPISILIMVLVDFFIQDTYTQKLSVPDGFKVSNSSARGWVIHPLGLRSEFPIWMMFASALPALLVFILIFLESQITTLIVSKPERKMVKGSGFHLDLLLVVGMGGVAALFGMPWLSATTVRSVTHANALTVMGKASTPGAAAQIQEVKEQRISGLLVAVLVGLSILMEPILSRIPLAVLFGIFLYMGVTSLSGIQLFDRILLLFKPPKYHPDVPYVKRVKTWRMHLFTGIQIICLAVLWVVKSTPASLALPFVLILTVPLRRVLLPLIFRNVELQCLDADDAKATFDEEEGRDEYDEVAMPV", "assay": "Additional specificity study: Cl−/HCO3− exchanger", "conditions": "5 μM"}, "[8]": {"biological_target": "T4, Na+/H+ exchanger (NEE3) (Homo sapiens, UniProt P48764)", "T4 sequence (P48764 26-834)": "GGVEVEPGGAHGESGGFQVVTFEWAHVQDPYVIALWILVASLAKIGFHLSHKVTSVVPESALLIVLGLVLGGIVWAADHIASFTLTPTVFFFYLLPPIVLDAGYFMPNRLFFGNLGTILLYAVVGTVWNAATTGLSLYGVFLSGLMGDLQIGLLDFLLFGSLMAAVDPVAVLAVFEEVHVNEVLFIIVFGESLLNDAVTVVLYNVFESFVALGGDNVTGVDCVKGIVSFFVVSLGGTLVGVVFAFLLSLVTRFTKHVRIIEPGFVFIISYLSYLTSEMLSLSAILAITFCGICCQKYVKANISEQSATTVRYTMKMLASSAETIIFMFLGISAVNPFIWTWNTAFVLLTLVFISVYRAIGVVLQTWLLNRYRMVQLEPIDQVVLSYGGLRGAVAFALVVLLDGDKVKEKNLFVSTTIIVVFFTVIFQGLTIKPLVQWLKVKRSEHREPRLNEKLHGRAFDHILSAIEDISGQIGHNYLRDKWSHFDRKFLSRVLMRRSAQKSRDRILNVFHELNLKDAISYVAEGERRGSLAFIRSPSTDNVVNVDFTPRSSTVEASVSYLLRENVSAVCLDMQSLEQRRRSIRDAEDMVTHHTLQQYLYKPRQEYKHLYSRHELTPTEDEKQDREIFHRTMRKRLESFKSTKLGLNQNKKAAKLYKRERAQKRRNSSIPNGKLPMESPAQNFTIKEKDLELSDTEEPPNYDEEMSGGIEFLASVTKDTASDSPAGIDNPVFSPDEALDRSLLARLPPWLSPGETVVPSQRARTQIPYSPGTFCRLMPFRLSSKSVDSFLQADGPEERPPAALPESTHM", "assay": "Additional specificity study: Na+/H+ exchanger", "conditions": "5 μM"}, "[9]": {"biological_target": "T5, CFTR Cl− channel (Rattus norvegicus, UniProt P34158)", "T5 construct": "from tissue; host or cells: rat colon mucosa strips", "T5 sequence (P34158 whole entry)": "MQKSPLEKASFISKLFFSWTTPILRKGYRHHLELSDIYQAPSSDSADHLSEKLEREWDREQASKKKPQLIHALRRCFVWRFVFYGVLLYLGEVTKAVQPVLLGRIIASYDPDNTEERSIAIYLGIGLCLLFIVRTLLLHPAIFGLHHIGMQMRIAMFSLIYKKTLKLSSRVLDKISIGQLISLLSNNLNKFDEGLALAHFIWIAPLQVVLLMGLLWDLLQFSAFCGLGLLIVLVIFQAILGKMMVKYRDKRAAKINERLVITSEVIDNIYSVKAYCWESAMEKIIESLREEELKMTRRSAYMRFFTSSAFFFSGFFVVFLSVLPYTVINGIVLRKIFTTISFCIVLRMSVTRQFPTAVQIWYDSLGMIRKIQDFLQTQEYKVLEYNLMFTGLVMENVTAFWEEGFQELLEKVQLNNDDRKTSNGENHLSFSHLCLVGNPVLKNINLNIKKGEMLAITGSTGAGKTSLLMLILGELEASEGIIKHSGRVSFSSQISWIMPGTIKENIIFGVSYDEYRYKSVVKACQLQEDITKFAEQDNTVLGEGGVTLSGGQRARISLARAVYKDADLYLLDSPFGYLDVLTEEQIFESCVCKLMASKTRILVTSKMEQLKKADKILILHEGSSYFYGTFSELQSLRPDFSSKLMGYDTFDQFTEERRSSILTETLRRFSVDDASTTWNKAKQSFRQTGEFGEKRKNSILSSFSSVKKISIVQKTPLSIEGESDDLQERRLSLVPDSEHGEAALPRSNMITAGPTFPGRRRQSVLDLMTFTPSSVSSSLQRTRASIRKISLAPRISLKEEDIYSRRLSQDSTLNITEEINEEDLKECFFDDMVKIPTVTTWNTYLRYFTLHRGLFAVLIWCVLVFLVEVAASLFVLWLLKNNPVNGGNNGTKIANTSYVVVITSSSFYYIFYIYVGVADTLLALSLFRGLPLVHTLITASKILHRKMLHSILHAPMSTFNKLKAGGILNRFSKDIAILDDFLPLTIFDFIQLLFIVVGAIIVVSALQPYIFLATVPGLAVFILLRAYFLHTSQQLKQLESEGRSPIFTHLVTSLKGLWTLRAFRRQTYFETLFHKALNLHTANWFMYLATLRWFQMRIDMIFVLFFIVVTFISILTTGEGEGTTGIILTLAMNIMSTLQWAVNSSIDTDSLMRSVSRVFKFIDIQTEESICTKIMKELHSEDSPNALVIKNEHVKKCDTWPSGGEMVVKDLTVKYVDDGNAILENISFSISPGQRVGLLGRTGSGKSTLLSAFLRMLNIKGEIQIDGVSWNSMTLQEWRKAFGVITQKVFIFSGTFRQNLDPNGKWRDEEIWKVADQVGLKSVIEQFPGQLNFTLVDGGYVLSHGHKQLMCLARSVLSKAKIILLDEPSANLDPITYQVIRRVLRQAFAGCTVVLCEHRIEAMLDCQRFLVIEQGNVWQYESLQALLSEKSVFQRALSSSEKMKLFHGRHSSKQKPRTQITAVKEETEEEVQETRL", "assay": "Short-circuit current in isolated rat colonic mucosa", "conditions": "amiloride, forskolin 20 μM"}, "[10]": {"tested_on": "cellular cAMP production", "assay": "Intracellular cAMP assay in FRT cells"}, "[11]": {"tested_on": "Calcium-sensitive Cl− channels", "assay": "UTP-stimulated Ca2+-dependent Cl− secretion, short-circuit current in human bronchial epithelial cells", "format": "cell-based"}, "[12]": {"tested_on": "Volume-sensitive Cl− channels", "assay": "Volume-activated Cl− current, whole-cell patch clamp on FRT cells", "format": "cell-based, rat", "conditions": "5 μM; 250 mosM/kg hypotonic solution", "text": "FIG. 4B is a graphical representation of volume-activated Cl^− current (hypotonic 250 mosM/kg H2O) measured in whole-cell patch clamp experiments on FRT cells."}, "[13]": {"tested_on": "phosphatase activity", "assay": "Phosphatase assay", "conditions": "5 μM"}, "[14]": {"biological_target": "T6, urea transporter (UT-B) (Homo sapiens, UniProt Q13336)", "T6 sequence (Q13336 1-389)": "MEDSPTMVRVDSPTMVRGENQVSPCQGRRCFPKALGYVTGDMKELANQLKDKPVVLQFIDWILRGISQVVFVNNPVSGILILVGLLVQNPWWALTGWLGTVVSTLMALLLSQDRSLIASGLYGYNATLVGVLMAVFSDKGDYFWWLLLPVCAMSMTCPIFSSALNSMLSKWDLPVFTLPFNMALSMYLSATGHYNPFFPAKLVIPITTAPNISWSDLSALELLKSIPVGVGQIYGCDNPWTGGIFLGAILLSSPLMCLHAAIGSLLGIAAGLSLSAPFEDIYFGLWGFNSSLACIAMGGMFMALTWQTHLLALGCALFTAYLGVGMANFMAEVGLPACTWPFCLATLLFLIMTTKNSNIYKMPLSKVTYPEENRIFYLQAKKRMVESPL", "assay": "Additional specificity study: urea transporter", "conditions": "5 μM"}, "[15]": {"conditions": "mice, intraperitoneal 1000 μg/kg daily for 7 days"}}, "note": "“Also recorded” adds a separate entry of the source. Read-outs that look alike come from different tables or passages of the source.", "data": [{"molecule": "O=C(O)c1ccccc1C=C1SC(=S)N(c2ccccc2C(F)(F)F)C1=O", "note": "[a=2, b=2, 3-[(a-trifluoromethyl)phenyl]-5-[(b-carboxyphenyl)methylene]-2-thioxo-4-thiazolidinone]", "values": [{"measurement": "relative potency (CFTR inhibitory activity)", "setting": "[1]", "result": 0.69}]}, {"molecule": "O=C(O)c1ccccc1C=C1SC(=S)N(c2ccccc2C(F)(F)F)C1=O", "note": "[3, 2, 3-[(a-trifluoromethyl)phenyl]-5-[(b-carboxyphenyl)methylene]-2-thioxo-4-thiazolidinone]", "values": [{"measurement": "relative potency (CFTR inhibitory activity)", "setting": "[1]", "result": 0.74}]}, {"molecule": "O=C1S/C(=C\\c2ccc(O)c(O)c2)C(=S)N1c1cccc(C(F)(F)F)c1", "note": "[CFTRinh-185, 3-[(3-trifluoromethyl)phenyl]-5-[(3,4-dihydroxyphenyl)methylene]-2-thioxo-4-thiazolidinone]", "values": [{"measurement": "relative potency (CFTR inhibitory activity)", "setting": "[1]", "result": 0.2}]}, {"molecule": "O=C(O)c1ccccc1C=C1SC(=S)N(c2ccccc2C(F)(F)F)C1=O", "note": "[2, 4, 3-[(a-trifluoromethyl)phenyl]-5-[(b-carboxyphenyl)methylene]-2-thioxo-4-thiazolidinone]", "values": [{"measurement": "relative potency (CFTR inhibitory activity)", "setting": "[1]", "result": 0.66}]}, {"molecule": "O=C(O)c1ccccc1C=C1SC(=S)N(c2ccccc2C(F)(F)F)C1=O", "note": "[2, 3, 3-[(a-trifluoromethyl)phenyl]-5-[(b-carboxyphenyl)methylene]-2-thioxo-4-thiazolidinone]", "values": [{"measurement": "relative potency (CFTR inhibitory activity)", "setting": "[1]", "result": 0.70}]}, {"molecule": "O=C(O)c1ccccc1C=C1SC(=S)N(c2ccccc2C(F)(F)F)C1=O", "note": "[4, 4, 3-[(a-trifluoromethyl)phenyl]-5-[(b-carboxyphenyl)methylene]-2-thioxo-4-thiazolidinone]", "values": [{"measurement": "relative potency (CFTR inhibitory activity)", "setting": "[1]", "result": 0.56}]}, {"molecule": "O=C(O)c1ccccc1C=C1SC(=S)N(c2ccccc2C(F)(F)F)C1=O", "note": "[4, 3, 3-[(a-trifluoromethyl)phenyl]-5-[(b-carboxyphenyl)methylene]-2-thioxo-4-thiazolidinone]", "values": [{"measurement": "relative potency (CFTR inhibitory activity)", "setting": "[1]", "result": 0.64}]}, {"molecule": "COc1ccc(CCN(C)CCCC(C#N)(c2ccc(OC)c(OC)c2)C(C)C)cc1OC", "note": "(stereo not drawn) [verapamil, reference compound]", "values": [{"measurement": "vincristine accumulation", "setting": "[2]; 100 μM", "result": "strongly increased"}]}, {"molecule": "O=C(O)Oc1ccc(/C=C2\\SC(=O)N(c3cccc(C(F)(F)F)c3)C2=S)cc1", "note": "[CFTRinh-029, 3-[(3-trifluoromethyl)phenyl]-5-[(4-oxycarboxyphenyl)methylene]-2-thioxo-4-thiazolidinone]", "values": [{"measurement": "relative potency (CFTR inhibitory activity)", "setting": "[1]", "result": 0.3}]}, {"molecule": "O=C(O)c1ccccc1C=C1SC(=S)N(c2ccccc2C(F)(F)F)C1=O", "note": "[4, 2, 3-[(a-trifluoromethyl)phenyl]-5-[(b-carboxyphenyl)methylene]-2-thioxo-4-thiazolidinone]", "values": [{"measurement": "relative potency (CFTR inhibitory activity)", "setting": "[1]", "result": 0.67}]}, {"molecule": "O=C(O)c1ccccc1C=C1SC(=S)N(c2ccccc2C(F)(F)F)C1=O", "note": "[3, 3, 3-[(a-trifluoromethyl)phenyl]-5-[(b-carboxyphenyl)methylene]-2-thioxo-4-thiazolidinone]", "values": [{"measurement": "relative potency (CFTR inhibitory activity)", "setting": "[1]", "result": 0.90}]}, {"molecule": "3-[(3-trifluoromethyl)phenyl]-5-[(4-carboxyphenyl)methylene]-2-thioxo-4-thiazolidinone [CFTRinh-172]", "values": [{"measurement": "block of water channel (AQP1)", "setting": "[3]", "result": "did not block"}, {"measurement": "food and water intake", "setting": "[4]; [15]", "result": "not diminished"}, {"measurement": "overt toxicity", "setting": "[4]; [15]", "result": "did not cause overt toxicity"}, {"measurement": "serum electrolyte concentrations, glucose, liver function indices, serum creatinine, amylase and hematocrit", "setting": "[4]; [15]", "result": "not changed"}, {"measurement": "overt toxicity", "setting": "[4]; single systemic dose 10 mg/kg", "result": "did not cause overt toxicity"}, {"measurement": "fluid accumulation in cholera toxin-treated ileal loops", "setting": "[5]", "result": "effectively prevented fluid accumulation; also recorded: significantly reduced fluid secretion to that in saline control loops"}, {"measurement": "concentrations non-toxic to FRT cells", "setting": "[6]", "result": "up to 100 μM"}, {"measurement": "block of Cl−/HCO3− exchanger (AEI)", "setting": "[7]", "result": "did not block"}, {"measurement": "block of Na+/H+ exchanger (NEE3)", "setting": "[8]", "result": "did not block"}, {"measurement": "vincristine accumulation", "setting": "[2]; 5 μM", "result": "did not affect vincristine accumulation"}, {"measurement": "reduction of short-circuit current", "setting": "[9]; 5 μM in mucosal solution alone", "result": "> 80", "unit": "%"}, {"measurement": "efficacy of short-circuit current inhibition, mucosal vs. serosal addition", "setting": "[9]", "result": "greater efficacy"}, {"measurement": "effect on cellular cAMP production", "setting": "[10]; 5 μM", "result": "did not affect"}, {"measurement": "cAMP content", "setting": "[10]; 30 min after 20 μM forskolin, + inhibitor (n=3)", "result": "1140±50", "unit": "fmol/well"}, {"measurement": "effect on Ca2+ activated Cl− secretion", "setting": "[11]; 5 μM, UTP 100 μM apical", "result": "did not inhibit"}, {"measurement": "maximal UTP-dependent short-circuit current", "setting": "[11]; in the presence of 5 μM inhibitor (SE, n=4)", "result": "10.0±0.2", "unit": "μA/cm^2"}, {"measurement": "effect on volume-activated Cl− currents", "setting": "[12]", "result": "did not block"}, {"measurement": "effect on phosphatase activity", "setting": "[13]", "result": "did not affect"}, {"measurement": "block of urea transporter (UT-B)", "setting": "[14]", "result": "did not block"}]}]}
